Assay results from the NIST ThermoML archive (doi:10.1016/j.jct.2011.10.023).
Numbers after ± are expanded uncertainties.

Settings: Liquid, Vibrating tube method

CCCO [propan-1-ol]
mass density [kg/m3]
Settings	278.15 K	288.15 K	298.15 K	308.15 K	318.15 K	328.15 K	338.15 K	348.15 K	358.15 K
100 kPa	815.7 ± 2.4	807.8 ± 2.4	799.8 ± 2.4	791.6 ± 2.4	783.4 ± 2.4	775 ± 2.4	766.3 ± 2.4	757.2 ± 2.4	747.7 ± 2.4
1000 kPa	816.4 ± 2.4	808.5 ± 2.4	800.5 ± 2.4	792.4 ± 2.4	784.2 ± 2.4	775.9 ± 2.4	767.2 ± 2.4	758.3 ± 2.4	748.8 ± 2.4
5000 kPa	819.4 ± 2.4	811.6 ± 2.4	803.8 ± 2.4	795.8 ± 2.4	787.9 ± 2.4	779.7 ± 2.4	771.3 ± 2.4	762.6 ± 2.4	753.5 ± 2.4
10000 kPa	822.8 ± 2.4	815.3 ± 2.4	807.6 ± 2.4	800.1 ± 2.4	792.2 ± 2.4	784.2 ± 2.4	776.1 ± 2.4	767.7 ± 2.4	758.8 ± 2.4
15000 kPa	826.2 ± 2.4	818.9 ± 2.4	811.4 ± 2.4	803.8 ± 2.4	796.3 ± 2.4	788.5 ± 2.4	780.6 ± 2.4	772.5 ± 2.4	764 ± 2.4
20000 kPa	829.4 ± 2.4	822.3 ± 2.4	814.9 ± 2.4	807.5 ± 2.4	800.2 ± 2.4	792.6 ± 2.4	784.9 ± 2.4	777 ± 2.4	768.7 ± 2.4
25000 kPa	832.6 ± 2.4	825.5 ± 2.4	818.3 ± 2.4	811.1 ± 2.4	803.9 ± 2.4	796.5 ± 2.4	789 ± 2.4	781.3 ± 2.4	773.3 ± 2.4
30000 kPa	835.7 ± 2.4	828.7 ± 2.4	821.6 ± 2.4	814.5 ± 2.4	807.5 ± 2.4	800.2 ± 2.4	792.9 ± 2.4	785.4 ± 2.4	777.5 ± 2.4
35000 kPa	838.6 ± 2.4	831.8 ± 2.4	824.8 ± 2.4	817.8 ± 2.4	810.9 ± 2.4	803.8 ± 2.4	796.6 ± 2.4	789.3 ± 2.4	781.6 ± 2.5
40000 kPa	841.5 ± 2.4	834.7 ± 2.4	827.9 ± 2.4	821 ± 2.4	814.2 ± 2.4	807.2 ± 2.5	800.2 ± 2.5	793 ± 2.5	785.5 ± 2.5
45000 kPa	844.3 ± 2.4	837.6 ± 2.4	830.9 ± 2.4	824.1 ± 2.5	817.5 ± 2.5	810.6 ± 2.5	803.7 ± 2.5	796.6 ± 2.5	789.3 ± 2.5
50000 kPa	847.1 ± 2.4	840.4 ± 2.5	833.8 ± 2.5	827.1 ± 2.5	820.5 ± 2.5	813.8 ± 2.5	807 ± 2.5	800.1 ± 2.5	792.9 ± 2.5
55000 kPa	849.7 ± 2.5	843.1 ± 2.5	836.6 ± 2.5	830 ± 2.5	823.6 ± 2.5	816.9 ± 2.5	810.3 ± 2.5	803.5 ± 2.5	796.4 ± 2.5
60000 kPa	852.1 ± 2.5	845.6 ± 2.5	839.2 ± 2.5	832.7 ± 2.5	825.8 ± 2.5	819.8 ± 2.5	813.4 ± 2.5	806.5 ± 2.5	799.6 ± 2.5
